In PMC9866629, “Pharmacokinetics of Novel Furoxan/Coumarin Hybrids in Rats Using LC-MS/MS Method and Physiologically Based Pharmacokinetic Model” (Molecules, 2023):
“And” between values parts separate entries of the source, which are not always exact repeats. Identical values can stand only once. Like-named read-outs stand apart in the source and are kept apart here.

Key:
[1] = PBPK modeling (Simcyp Rat); details: blood, intravenous, in rats, calculated on the basis of B/P and the plasma clearance rate, read-out: liver blood clearance
Excerpt: PBPK models were constructed with physical chemistry and in vitro PK parameters, such as molecular weight (MW), octanol–buffer partition coefficient (log Po:w), compound type, pKa, B/P, fu, and CLint, using Simcyp (Simcyp Rat Version 16, Sheffield, UK). Two physical chemistry parameters of log Po:w and pKa were predicted on the basis of the structure of the chemicals by using the ADMET Predictor (v.9.0, Lancaster, http://www.simulations-plus.com/, accessed on 9 September 2019). Other parameters, including B/P, fu, and CLint, were obtained through in vitro experiments as mentioned above. The time course of xenobiotic concentration in plasma was simulated, and the PBPK models were further optimized on the basis of the experimental in vivo PK parameters (AUC, Cmax, and time to reach Cmax (Tmax)). The prediction accuracy of the PBPK model was evaluated by introducing the deviation (fold error) of the predicted PK parameters and comparing them with the experimental ones. The equation of the fold error is shown below. A simulation with fold errors no greater than 2 is acceptable [36, 42]. (1) fold error=observed parameter/predicted parameter;if observed value>predicted value (2) fold error=predicted parameter/observed parameter;if predicted value>observed value

[2] = Free drug fraction (fu) in rat plasma by ultrafiltration; assay type: in vitro ADME
Method: The fu of furoxan/coumarin hybrids in plasma was measured through the ultrafiltration method by using Amicon Ultra-15 ultrafiltration centrifuge tube (0.5 mL, 3-kDa membrane, Millipore, Bedford, MA, USA). […] One batch was incubated in a shaking water bath at 37 °C for 30 min, and the other batch was incubated for 60 min. After incubation, a plasma sample was transferred into ultrafiltration tube and centrifuged at 10,000 rpm for 20 min. The free compound in the filtrated fraction was determined directly by LC-MS/MS. All experiments were performed in triplicate.

[3] = Blood-to-plasma concentration ratio (B/P) in rat blood; assay type: in vitro ADME; details: 37 °C, 1 μg/mL (CY-14S-4A83, CY-16S-4A43), 5 μg/mL (CY-16S-4A93)
Method: Two batches of blood samples were prepared in parallel. One batch of the blood samples was then incubated in a shaking water bath at 37 °C for 30 min, and the other batch was incubated for 60 min. After incubation, one 150 μL aliquot of blood samples was centrifuged at 1500 rpm for 5 min, and the concentrations of the testing compound in the resulting plasma portion after extraction were determined by LC-MS/MS. In parallel, another 50 uL aliquot of the blood incubation sample was transferred into an Eppendorf tube and lysed by three-cycle freeze/thaw method. After the cell-lysis and extraction, the concentration of testing compound in the whole blood sample was determined by LC-MS/MS. The B/P was determined directly by the ratio of drug concentration in the whole blood to the plasma concentration. All experiments were performed in triplicate.

[4] = Stability test of QC plasma samples (LC-MS/MS validation); assay type: physicochemical, rat; details: QC plasma samples 20–800 ng/mL, frozen at −80 °C for one week, n = 5
Method: The concentration of the testing compound was calculated by using the calibration curves with seven dots (10, 25, 50, 100, 250, 500, and 1000 ng/mL). The calibration line was constructed by plotting the peak area ratio (y-axis) of analytes to IS versus the nominal concentration (x-axis). The specificity and selectivity were investigated by comparing the chromatograms of blank plasma samples with the corresponding samples spiked with testing compounds. The signal-to-noise ratio (S/N) of the lower limit of quantification (LLOQ) was at least at 10. The linearity of the calibration graph was validated, and the calculated concentrations of the calibration standards should be all within ±15% of the nominal value, except for the LLOQ of ±20%. The linear correlation coefficient (R^2) should be 0.9900 or greater. The intra- and interday precisions and accuracy of the method were assessed by determining the quality control (QC) samples of […] (six samples at each concentration level) over 3 consecutive days. The coefficient of variation (CV) should not exceed 20% at LLOQ and should be within 15% for QCs. The relative error (RE) should be within 80%–120% at LLOQ and within 85%–115% for QCs. Recovery was assessed by comparing peak area of nominal QC plasma samples with peak area of the spike-after extraction samples (six samples at each concentration level). The matrix effect was evaluated by comparing peak area of the spike-after extraction samples with that of the analytes spiked in pure water (six samples at each concentration level). The recovery and matrix factor should be within 85%–115%. The variation in recovery and matrix effect should be less than 15%. The dilution integrity test was performed for samples exceeding the upper limit of quantification (ULOQ). QCs were prepared (5 samples at each concentration level) and frozen at […] for one week. LC-MS/MS analysis was performed to calculate the stability (RE). Samples of 25 μg/mL (n = 6) were diluted with blank matrix to 0.5 μg/mL, which was within the calibration line range, and the RE should be within 85–115%.

[5] = Pharmacokinetic study after intravenous administration to rats; assay type: in vivo, rat; details: for clearance / AUC(0-inf) / Cmax / MRT / Tmax / Vd / half-life / AUC(0-t): rat, plasma; for AUC(0-t): read-out: AUC(0–24 h)
Method: Rats were randomly divided into three groups, namely A, B, and C, with six rats in each group. […] Blood samples (0.15–0.2 mL) were collected through the femoral artery into an Eppendorf tube moistened with heparinized 0.9% NaCl before intravenous injection (0 h) and at 0.083, 0.25, 0.5, 1, 2, 4, 8, 12, and 24 h after intravenous injection. The blood sample was immediately centrifuged at 3000 rpm for 10 min at a temperature of 4 °C, and the upper plasma sample was collected and stored at −80 °C until analysis.
The plasma samples were thawed at room temperature before determination. Further, 20 μL of plasma was pipetted into a 1.5 mL Eppendorf tube, and 80 μL of methanol–acetonitrile (1:1, v/v) solution containing 200 ng/mL IS was added to precipitate the proteins. The contents were mixed thoroughly via vortexing the plasma sample for 40 s. The supernatant was aspirated for LC-MS/MS analysis after centrifugation at 14,000 rpm for 15 min.
(§1) Vmax and Km were estimated via the nonlinear regression of the Michaelis–Menten model by using GraphPad Prism (Version 6.01, http://www.graphpad.com/). The PK parameters were determined from drug plasma concentration-time data by employing a noncompartmental approach using Phoenix WinNonlin (version 3.0).

[6] = In vitro intrinsic clearance, disappearance via rat liver microsomes; assay type: in vitro ADME; details: for microsomal CLint: Sprague Dawley, rat, pooled liver microsomes, pH 7.4, rat hepatic microsomes; for microsomal CLint / CLint: Vmax divided by Km; for Km at 20 min: pooled rat liver microsomes, pH 7.4; for Km at 20 min / Vmax: rat hepatic microsomes 0.2 mg protein/mL, NADPH 1 mM, 20 min; for CLint: rat hepatic microsomes
Method: The incubation mixture with a final volume of 50 μL contained the testing compound, rat liver microsomes (0.2 mg protein/mL), phosphate buffer ([…], pH 7.4), and NADPH (1 mM). Before adding NADPH, the reaction mixture was preincubated in a shaking water bath at 37 °C for 5 min. 200 μL of methanol–acetonitrile mixture (1:1) containing IS was added to terminate the reaction after incubation for 20 min. Concentration of the testing compound was determined by LC-MS/MS after centrifugation at 14,000 rpm for 15 min. […] All experiments were performed in triplicate.
as §1

[7] = 1.67 mg/kg, experimental value compared with PBPK prediction, read-out: experimental CL
[8] = single dose 1.67 mg/kg, read-out: CL (converted)

Row | clearance [1] [mL/min] | Stability (RE) [4] | microsomal CLint [6] [µL/min/mg] | Km at 20 min [6] [µM] | clearance [5, 7] [mL/min] | AUC(0-inf) ([5]; single dose 1.67 mg/kg) [ng·h/mL] | Cmax ([5]; single dose 1.67 mg/kg) [ng/mL] | MRT ([5]; single dose 1.67 mg/kg) [min] | Tmax ([5]; single dose 1.67 mg/kg) [min] | Vd ([5]; single dose 1.67 mg/kg) [L/kg] | half-life ([5]; single dose 1.67 mg/kg) [min] | AUC(0-t) ([5]; single dose 1.67 mg/kg) [ng·h/mL] | clearance [5, 8] [mL/min/kg] | SMILES | Vmax [6] | also measured
1 | 0.23 | 88–94.4% | 336 | 18 ± 2.3 |  |  |  |  |  |  |  |  |  | Cc1c(Cc2ccc(F)cc2)c(=O)oc2cc(OCCOc3no[n+]([O-])c3S(=O)(=O)c3ccccc3)ccc12 [CY-14S-4A83] | 6044.0 pmol/min/mg Protein and 6044.0 ± 290.8 pmol/min/mg Protein | fraction unbound at 30 min ([2]; rat, fresh rat plasma): 0.0298 ± 0.002; fraction unbound at 60 min ([2]; rat, fresh rat plasma): 0.0217 ± 0.0003; f u ([2]; value used in the PBPK modeling): 0.02; B/P ([3]; incubation time 30 min): 12.11 ± 0.094; B/P ([3]; incubation time 60 min): 12.34 ± 0.03; plasma concentration within 24 h (stays above LLOQ) ([5]; 0.5 mg/kg): > 10 ng/mL; clearance ([5]; 0.5 mg/kg, experimental value compared with PBPK prediction, read-out: experimental CL): 1.73 mL/min; AUC(0-inf) ([5]; single dose 0.5 mg/kg): 1340 ± 475 ng·h/mL; Cmax ([5]; single dose 0.5 mg/kg): 946 ± 452 ng/mL; MRT ([5]; single dose 0.5 mg/kg): 366 ± 90 min; Tmax ([5]; single dose 0.5 mg/kg): 12 ± 12 min; Vd ([5]; single dose 0.5 mg/kg): 0.56 ± 0.15 L/kg; half-life ([5]; single dose 0.5 mg/kg): 60 ± 12 min; AUC(0-t) ([5]; single dose 0.5 mg/kg): 1310 ± 462 ng·h/mL; clearance ([5]; single dose 0.5 mg/kg, read-out: CL (converted)): 6.91 mL/min/kg; CLint [6]: 336.033 µL/min/mg
2 | 1.87 | 86–99.5% | 333 | 1.4 ± 0.3 | 10.9 | 673 ± 182 | 1210 ± 482 | 270 ± 60 | 6 ± 6 | 2.03 ± 0.63 | 30 ± 6 | 669 ± 182 | 43.7 | Cc1c(Cc2ccc(C#N)cc2)c(=O)oc2cc(OCCOc3no[n+]([O-])c3S(=O)(=O)c3ccccc3)ccc12 [CY-16S-4A43] | 481.2 pmol/min/mg Protein and 481.2 ± 30.0 pmol/min/mg Protein | time within which plasma concentration dropped to less than 10 ng/mL ([5]; 1.67 mg/kg): 2 to 4 h
3 | 0.24 | 86.5–94.7% | 174 | 1.3 ± 0.2 | 2.08 | 3850 ± 1770 | 9380 ± 4210 | 132 ± 42 | 6 | 0.68 ± 0.38 | 54 ± 12 | 3850 ± 1770 | 8.34 | Cc1c(Cc2ccc(C(F)(F)F)cc2)c(=O)oc2cc(OCCOc3no[n+]([O-])c3S(=O)(=O)c3ccccc3)ccc12 [CY-16S-4A93] | 220.0 pmol/min/mg Protein | plasma concentration within 24 h (stays above LLOQ) ([5]; 1.67 mg/kg): > 10 ng/mL; Vmax ([6]; listed as CY-14S-4A93): 220.0 ± 14.1 pmol/min/mg Protein; CLint ([6]; listed as CY-14S-4A93): 173.83 µL/min/mg
